One assay deals with Neisseria gonorrhoeae. As to the kind of experiment: Broth microdilution MIC across streptogramin B:A ratios. The format is cell-based.
The subject of assay [1] is Streptococcus pneumoniae. Described as above. The format is cell-based.
The next assay relates to Staphylococcus aureus. The description is as above. Format: cell-based.
For another assay, the system named is Mycoplasma genitalium. As to the kind of experiment: MIC across streptogramin B:A ratios (CLSI mycoplasma method). The format is cell-based. To be noted: 10 strains and isolates.
The subject of assay [2] is Streptococcus pneumoniae. The experiment in a line: MBC assay. The format is cell-based. The conditions noted are these: S. pneumoniae strains evaluated.
In assay [3] the test system is S. aureus BAA-1717 strain. As to the kind of experiment: MIC against the infecting strain of the thigh model. The conditions noted are these: Staphylococcus aureus, BAA1717.

SMILES strings stand for the structures. In brackets after ≈: the same amount, converted by molar mass. Where two headings read alike, the source gives them in different places. Positions of bridges follow the written chain, without caps; N, C: chain ends. Non-standard residues stand in square brackets, D forms with d. Residues, ends and D or L forms follow the SMILES beside them. *: point of attachment. NMePhe(4-NMe2) = CN[C@@H](Cc1ccc(N(C)C)cc1)C(=O)O; Pip(4-oxo) = O=C1CCN[C@H](C(=O)O)C1; Picolinoyl(3-OH) = O=C(c1ncccc1O)*; Phg = N[C@H](C(=O)O)c1ccccc1; dAbu = CC[C@@H](N)C(=O)O

In the case of `CC[C@H]1OC(=O)[C@H](C)[C@@H](O[C@H]2C[C@@](C)(OC)[C@@H](O)[C@H](C)O2)[C@H](C)[C@@H](O[C@@H]2O[C@H](C)C[C@H](N(C)C)[C@H]2O)[C@](C)(O)C[C@@H](C)CN(C)[C@H](C)[C@@H](O)[C@]1(C)O` [AZI, Azithromycin, reference compound], the MIC in the assay with Neisseria gonorrhoeae (Neisseria gonorrhoeae, ATCC49226, strain ATCC 49226, read-out: MIC) was 0.5 µg/mL; in the assay on Neisseria gonorrhoeae (Neisseria gonorrhoeae, strain CDC 0167, read-out: MIC), 16 µg/mL; in the assay on Neisseria gonorrhoeae (Neisseria gonorrhoeae, strain CDC 0175, read-out: MIC), 16 µg/mL; in the assay on Neisseria gonorrhoeae (Neisseria gonorrhoeae, strain CDC 0177, read-out: MIC) it was 4 µg/mL; in the assay with Neisseria gonorrhoeae (Neisseria gonorrhoeae, strain CDC 0181, read-out: MIC), over 16 µg/mL; with Neisseria gonorrhoeae (Neisseria gonorrhoeae, strain CDC 0194, read-out: MIC) it was 0.5 µg/mL. Moreover, the MIC with Neisseria gonorrhoeae (Neisseria gonorrhoeae, strain MMX 6921, read-out: MIC) amounted to 16 µg/mL; with Neisseria gonorrhoeae (Neisseria gonorrhoeae, strain WHO F, read-out: MIC), 0.12 µg/mL; in the assay on Neisseria gonorrhoeae (Neisseria gonorrhoeae, strain WHO G, read-out: MIC), 0.25 µg/mL; in the assay on Neisseria gonorrhoeae (Neisseria gonorrhoeae, strain WHO K, read-out: MIC), 0.5 µg/mL; with Neisseria gonorrhoeae (Neisseria gonorrhoeae, strain WHO L, read-out: MIC), 0.5 µg/mL; with Neisseria gonorrhoeae (Neisseria gonorrhoeae, strain WHO M, read-out: MIC), 0.5 µg/mL. Also, the MIC with Neisseria gonorrhoeae (Neisseria gonorrhoeae, strain WHO N, read-out: MIC) is 0.25 µg/mL; in the assay with Neisseria gonorrhoeae (Neisseria gonorrhoeae, strain WHO O, read-out: MIC), 0.5 µg/mL; in the assay with Neisseria gonorrhoeae (Neisseria gonorrhoeae, strain WHO P, read-out: MIC), 8 µg/mL; with Neisseria gonorrhoeae (Neisseria gonorrhoeae, strain WHO U, read-out: MIC) it was 8 µg/mL; with Neisseria gonorrhoeae (Neisseria gonorrhoeae, strain WHO V, read-out: MIC), over 16 µg/mL; in the assay with Neisseria gonorrhoeae (Neisseria gonorrhoeae, strain WHO W, read-out: MIC), 0.5 µg/mL. Further, the MIC in the assay on Neisseria gonorrhoeae (Neisseria gonorrhoeae, strain WHO X, read-out: MIC) amounted to 1 µg/mL; in the assay with Neisseria gonorrhoeae (Neisseria gonorrhoeae, strain WHO Y, read-out: MIC) it was 1 µg/mL.
Turning to `CC1=C\[C@@H](O)C[C@@H](F)Cc2nc(co2)C(=O)N2CCC[C@@H]2C(=O)O[C@H](C(C)C)[C@H](C)/C=C/C(=O)NC\C=C\1` [CBA1 0:100, flopristin], the MIC in the assay with Neisseria gonorrhoeae (strain ATCC 49226) is 0.12 µg/mL; in the assay on Neisseria gonorrhoeae (strain CDC 0167) it was 0.03 µg/mL; with Neisseria gonorrhoeae (strain CDC 0175) it was 0.03 µg/mL; in the assay on Neisseria gonorrhoeae (strain CDC 0177), 0.06 µg/mL; in the assay with Neisseria gonorrhoeae (strain CDC 0181), 0.12 µg/mL; with Neisseria gonorrhoeae (strain CDC 0194), 0.06 µg/mL. Moreover, the MIC turned out to be 0.12 µg/mL in the assay with Neisseria gonorrhoeae (strain MMX 6921); 0.015 µg/mL in the assay on Neisseria gonorrhoeae (strain WHO F); 0.12 µg/mL in the assay on Neisseria gonorrhoeae (strain WHO G); 0.25 µg/mL in the assay on Neisseria gonorrhoeae (strain WHO K); 0.12 µg/mL in the assay on Neisseria gonorrhoeae (strain WHO L); 0.12 µg/mL with Neisseria gonorrhoeae (strain WHO M). Besides, the MIC came to 0.12 µg/mL with Neisseria gonorrhoeae (strain WHO N); 0.12 µg/mL in the assay with Neisseria gonorrhoeae (strain WHO O); 0.5 µg/mL with Neisseria gonorrhoeae (strain WHO P); 0.12 µg/mL with Neisseria gonorrhoeae (strain WHO U); 0.25 µg/mL in the assay on Neisseria gonorrhoeae (strain WHO V); 0.12 µg/mL in the assay on Neisseria gonorrhoeae (strain WHO W). Moreover, the MIC with Neisseria gonorrhoeae (strain WHO X) was 0.12 µg/mL; in the assay with Neisseria gonorrhoeae (strain WHO Y), 0.12 µg/mL; in the assay on Streptococcus pneumoniae [1] (strain ATCC 49619), 2 µg/mL; in the assay with Streptococcus pneumoniae [1] (strain ATCC 700677), 8 µg/mL; in the assay on Streptococcus pneumoniae [1] (strain MMX 3031), 4 µg/mL; with Streptococcus pneumoniae [1] (strain MMX 3033), 4 µg/mL. In addition, the MIC in the assay with Streptococcus pneumoniae [1] (strain MMX 4937) stood at 2 µg/mL; in the assay on Staphylococcus aureus (strain ATCC 29213) it was 1 µg/mL; in the assay with Staphylococcus aureus (strain ATCC BAA 977), 1 µg/mL; with Staphylococcus aureus (strain ATCC BAA-976), 0.5 µg/mL; in the assay on Staphylococcus aureus (strain MMX 2336), 0.5 µg/mL; in the assay with Staphylococcus aureus (strain MMX 3035) it was 0.5 µg/mL. Further, the MIC with Staphylococcus aureus (strain MMX 3037) was found to be 0.25 µg/mL; in the assay on Staphylococcus aureus (strain MMX 3095), 1 µg/mL; with Staphylococcus aureus (strain MMX 3098), 1 µg/mL; with Staphylococcus aureus (strain MMX 3885), 0.5 µg/mL; in the assay with Staphylococcus aureus (strain MMX 3983), 0.5 µg/mL; with Staphylococcus aureus (strain MMX 4670), 0.25 µg/mL. In addition, the MIC came to 2 µg/mL in the assay with Staphylococcus aureus (strain MMX 5787), 2 µg/mL in the assay with Staphylococcus aureus (strain NRS 271), 1 µg/mL in the assay on Staphylococcus aureus (strain NRS 382) and 1 µg/mL in the assay with Staphylococcus aureus (strain NRS 384). Further, the MIC range in the assay with Mycoplasma genitalium lay within 0.015 to 0.5 µg/mL. The “Strains against which bactericidal (MBC divided by MIC ≤4)” value with Streptococcus pneumoniae [2] was 5 out of the 5.
As to `CC[C@H]1NC(=O)[C@@H](NC(=O)c2ncccc2O)[C@@H](C)OC(=O)[C@H](c2ccccc2)NC(=O)[C@@H]2CC(=O)CCN2C(=O)[C@H](Cc2ccc(N(C)C)cc2)N(C)C(=O)[C@@H]2CCCN2C1=O` [CBA1 100:0, pristinamycin IA] ({Picolinoyl(3-OH)}-T[dAbu]P[NMePhe(4-NMe2)][Pip(4-oxo)][Phg]; ester 1-C), the MIC was over 64 µg/mL with Neisseria gonorrhoeae (strain ATCC 49226); over 64 µg/mL in the assay on Neisseria gonorrhoeae (strain CDC 0167); over 64 µg/mL with Neisseria gonorrhoeae (strain CDC 0175); over 64 µg/mL with Neisseria gonorrhoeae (strain CDC 0177); over 64 µg/mL with Neisseria gonorrhoeae (strain CDC 0181); 32 µg/mL in the assay with Neisseria gonorrhoeae (strain CDC 0194). Further, the MIC in the assay with Neisseria gonorrhoeae (strain MMX 6921) was over 64 µg/mL; in the assay with Neisseria gonorrhoeae (strain WHO F), 32 µg/mL; in the assay with Neisseria gonorrhoeae (strain WHO G) it was over 64 µg/mL; with Neisseria gonorrhoeae (strain WHO K), over 64 µg/mL; in the assay with Neisseria gonorrhoeae (strain WHO L), 64 µg/mL; in the assay with Neisseria gonorrhoeae (strain WHO M), 64 µg/mL. Moreover, the MIC was over 64 µg/mL with Neisseria gonorrhoeae (strain WHO N); 64 µg/mL in the assay with Neisseria gonorrhoeae (strain WHO O); over 64 µg/mL with Neisseria gonorrhoeae (strain WHO P); over 64 µg/mL in the assay on Neisseria gonorrhoeae (strain WHO U); over 64 µg/mL in the assay on Neisseria gonorrhoeae (strain WHO V); 64 µg/mL in the assay with Neisseria gonorrhoeae (strain WHO W). Besides, the MIC with Neisseria gonorrhoeae (strain WHO X) is over 64 µg/mL; in the assay with Neisseria gonorrhoeae (strain WHO Y), 32 µg/mL; in the assay on Streptococcus pneumoniae [1] (strain ATCC 49619) it was 1 µg/mL; in the assay on Streptococcus pneumoniae [1] (strain ATCC 700677), 32 µg/mL; in the assay with Streptococcus pneumoniae [1] (strain MMX 3031), 0.5 µg/mL; in the assay with Streptococcus pneumoniae [1] (strain MMX 3033), 2 µg/mL. Moreover, the MIC in the assay with Streptococcus pneumoniae [1] (strain MMX 4937) was 1 µg/mL; in the assay with Staphylococcus aureus (strain ATCC 29213), 8 µg/mL; in the assay on Staphylococcus aureus (strain ATCC BAA 977) it was 16 µg/mL; with Staphylococcus aureus (strain ATCC BAA-976), 8 µg/mL; with Staphylococcus aureus (strain MMX 2336), 8 µg/mL; in the assay with Staphylococcus aureus (strain MMX 3035), over 64 µg/mL. The MIC in the assay with Staphylococcus aureus (strain MMX 3037) is over 64 µg/mL; in the assay with Staphylococcus aureus (strain MMX 3095), 8 µg/mL; in the assay with Staphylococcus aureus (strain MMX 3098), 8 µg/mL; in the assay on Staphylococcus aureus (strain MMX 3885) it was 8 µg/mL; in the assay on Staphylococcus aureus (strain MMX 3983), over 64 µg/mL; in the assay on Staphylococcus aureus (strain MMX 4670), over 64 µg/mL. For the same molecule, the MIC is over 64 µg/mL in the assay with Staphylococcus aureus (strain MMX 5787), 8 µg/mL in the assay on Staphylococcus aureus (strain NRS 271), over 64 µg/mL in the assay with Staphylococcus aureus (strain NRS 382) and 8 µg/mL with Staphylococcus aureus (strain NRS 384). Further, in the assay on Mycoplasma genitalium, the MIC range lay within 2 to 16 µg/mL. Also, in the assay on Streptococcus pneumoniae [2], the “Strains against which bactericidal (MBC divided by MIC ≤4)” value is given as 2 out of the 4.
In assay [3], `CC(=O)NC[C@H]1CN(c2ccc(N3CCOCC3)c(F)c2)C(=O)O1` [linezolid] returned an MIC of 2 µg/mL (≈ 5.93 µM).
Still for that read-out and setting: in the case of `CN[C@H](CC(C)C)C(=O)N[C@H]1C(=O)N[C@@H](CC(N)=O)C(=O)N[C@H]2C(=O)N[C@H]3C(=O)N[C@H](C(=O)N[C@H](C(=O)O)c4cc(O)cc(O)c4-c4cc3ccc4O)[C@H](O)c3ccc(c(Cl)c3)Oc3cc2cc(c3O[C@@H]2O[C@H](CO)[C@@H](O)[C@H](O)[C@H]2O[C@H]2C[C@](C)(N)[C@H](O)[C@H](C)O2)Oc2ccc(cc2Cl)[C@H]1O` [vancomycin] it was 1 µg/mL (≈ 0.69 µM).

The record behind these values is patent publication US20250099536A1, “PRISTINAMYCIN IA AND FLOPRISTIN COMBINATIONS IN TREATING OR PREVENTING BACTERIAL INFECTIONS” (AIMMAX THERAPEUTICS, INC., priority 2021, published 2025).
